One series addresses LAMTOR5 (Homo sapiens, UniProt O43504). Briefly: Rhodamine labeling with alkyne probe on purified Lamtor-Rag complexes. The format is binding. The note with it: preliminary experiments. An excerpt: FIGS. 8A-8B. (FIG. 8A) Structures of CC 2-11 and CC 1-44. CC 2-11 bears an alkyne group on a separate ring from the cysteine-reactive warhead. The presence of the alkyne group enables us to directly label the modified target protein (e.g. Lamtor5) with biotin or rhodamine groups, either in gels or in complex proteomes. […] Thus, CC 2-11 allows precise mapping of the target cysteines as well as accurate identification of the off-targets.
We also synthesized a CC 1-44 derivative, named CC 2-11, which bears an alkyne group on a separate ring from the cysteine-reactive warhead (FIG. 8A). The presence of the alkyne group enables us to directly label the modified target protein (e.g. Lamtor5) with biotin or rhodamine groups, either in gels or in complex proteomes. […] Thus, CC 2-11 will allow precise mapping of the target cysteines as well as accurate identification of the off-targets.

For series [1] the following is noted: in vivo; cited from earlier work.

Consider `C#Cc1cc(COc2cccc3c2ccn3C(=O)C=C)cc(C(F)(F)F)c1` [CC 2-11], for which the “direct rhodamine labeling of target protein by alkyne probe” value at LAMTOR5 was “enables rhodamine labeling of a 28 KDa band corresponding to Lamtor5”.
With `CO[C@H]1C[C@@H]2CC[C@@H](C)[C@@](O)(O2)C(=O)C(=O)N2CCCC[C@H]2C(=O)O[C@H]([C@H](C)C[C@@H]2CC[C@@H](O)[C@H](OC)C2)CC(=O)[C@H](C)/C=C(\C)[C@@H](O)[C@@H](OC)C(=O)[C@H](C)C[C@H](C)/C=C/C=C/C=C/1C` [rapamycin], the bioavailability result in series [1] is “good”.

The values are drawn from patent US10807951B2, “mTORC1 modulators” (THE REGENTS OF THE UNIVERSITY OF CALIFORNIA, priority 2017, dated 2020).
